Assay results as given in the supplement of paper PMC10307832.

How the values were obtained:
Experiment in all cases: relative viability (nuclei count vs DMSO), 5 days (fraction); higher = more cells survive
Pemetrexed + Tozasertib = compound: Nc1nc2[nH]cc(CCc3ccc(C(=O)N[C@@H](CCC(=O)O)C(=O)O)cc3)c2c(=O)[nH]1 [Pemetrexed] + Cc1cc(Nc2cc(N3CCN(C)CC3)nc(Sc3ccc(NC(=O)C4CC4)cc3)n2)n[nH]1 [Tozasertib] (partner 0.1 µM)
In short: (§1)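 For relative viability, nuclei counts in treated wells were divided by those in vehicle wells. Lung cancer cell lines had been pin-tool dosed in 1536-well plates the day after seeding and cultured for 5 days, then fixed and stained in one step (final 0.05% Triton X-100, 1% formaldehyde, 1 ug/ml Hoechst) and imaged at 4×. Doses were one drug alone or a fixed anchor-drug dose plus five library-drug doses (not always all listed) in √10 steps, and values are duplicate-plate medians.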

Pemetrexed + Olaparib = compound: Nc1nc2[nH]cc(CCc3ccc(C(=O)N[C@@H](CCC(=O)O)C(=O)O)cc3)c2c(=O)[nH]1 [Pemetrexed] + O=C(c1cc(Cc2n[nH]c(=O)c3ccccc23)ccc1F)N1CCN(C(=O)C2CC2)CC1 [Olaparib] (partner 8 µM)
In short: as §1

Idelalisib + Foretinib = compound: CC[C@H](Nc1ncnc2[nH]cnc12)c1nc2cccc(F)c2c(=O)n1-c1ccccc1 [Idelalisib] + COc1cc2c(Oc3ccc(NC(=O)C4(C(=O)Nc5ccc(F)cc5)CC4)cc3F)ccnc2cc1OCCCN1CCOCC1 [Foretinib] (partner 0.25 µM)
In short: as §1

Pemetrexed + Trametinib = compound: Nc1nc2[nH]cc(CCc3ccc(C(=O)N[C@@H](CCC(=O)O)C(=O)O)cc3)c2c(=O)[nH]1 [Pemetrexed] + CC(=O)Nc1cccc(-n2c(=O)n(C3CC3)c(=O)c3c(Nc4ccc(I)cc4F)n(C)c(=O)c(C)c32)c1 [Trametinib] (partner 0.02 µM)
In short: as §1

NCI-H1975
relative viability (Pemetrexed + Tozasertib; first compound 0.002 µM): 0.756
relative viability (Pemetrexed + Tozasertib; first compound 0.006325 µM): 0.752
relative viability (Pemetrexed + Tozasertib; first compound 0.02 µM): 0.768
relative viability (Pemetrexed + Tozasertib; first compound 0.06325 µM): 0.704
relative viability (Pemetrexed + Tozasertib; first compound 0.2 µM): 0.297
relative viability (Pemetrexed + Olaparib; first compound 0.002 µM): 0.645
relative viability (Pemetrexed + Olaparib; first compound 0.006325 µM): 0.748
relative viability (Pemetrexed + Olaparib; first compound 0.02 µM): 0.765
relative viability (Pemetrexed + Olaparib; first compound 0.06325 µM): 0.677
relative viability (Pemetrexed + Olaparib; first compound 0.2 µM): 0.323
relative viability (Idelalisib + Foretinib; first compound 0.04 µM): 0.934
relative viability (Idelalisib + Foretinib; first compound 0.1265 µM): 0.931
relative viability (Idelalisib + Foretinib; first compound 0.4 µM): 0.885
relative viability (Idelalisib + Foretinib; first compound 1.265 µM): 0.86
relative viability (Idelalisib + Foretinib; first compound 4 µM): 0.867
relative viability (Pemetrexed + Trametinib; first compound 0.002 µM): 0.277
relative viability (Pemetrexed + Trametinib; first compound 0.006325 µM): 0.408
relative viability (Pemetrexed + Trametinib; first compound 0.02 µM): 0.323
relative viability (Pemetrexed + Trametinib; first compound 0.06325 µM): 0.329
relative viability (Pemetrexed + Trametinib; first compound 0.2 µM): 0.237

PC-3 [JPC-3]
relative viability (Pemetrexed + Tozasertib; first compound 0.002 µM): 0.82
relative viability (Pemetrexed + Tozasertib; first compound 0.006325 µM): 0.939
relative viability (Pemetrexed + Tozasertib; first compound 0.02 µM): 0.895
relative viability (Pemetrexed + Tozasertib; first compound 0.06325 µM): 0.878
relative viability (Pemetrexed + Tozasertib; first compound 0.2 µM): 0.861
relative viability (Pemetrexed + Olaparib; first compound 0.002 µM): 1.03
relative viability (Pemetrexed + Olaparib; first compound 0.006325 µM): 1.18
relative viability (Pemetrexed + Olaparib; first compound 0.02 µM): 1.19
relative viability (Pemetrexed + Olaparib; first compound 0.06325 µM): 1.14
relative viability (Pemetrexed + Olaparib; first compound 0.2 µM): 1.08
relative viability (Idelalisib + Foretinib; first compound 0.04 µM): 1.01
relative viability (Idelalisib + Foretinib; first compound 0.1265 µM): 0.961
relative viability (Idelalisib + Foretinib; first compound 0.4 µM): 1.01
relative viability (Idelalisib + Foretinib; first compound 1.265 µM): 1.06
relative viability (Idelalisib + Foretinib; first compound 4 µM): 0.957
relative viability (Pemetrexed + Trametinib; first compound 0.002 µM): 0.748
relative viability (Pemetrexed + Trametinib; first compound 0.006325 µM): 0.666
relative viability (Pemetrexed + Trametinib; first compound 0.02 µM): 0.683
relative viability (Pemetrexed + Trametinib; first compound 0.06325 µM): 0.657
relative viability (Pemetrexed + Trametinib; first compound 0.2 µM): 0.725

NCI-H2126
relative viability (Pemetrexed + Tozasertib; first compound 0.002 µM): 0.711
relative viability (Pemetrexed + Tozasertib; first compound 0.006325 µM): 0.845
relative viability (Pemetrexed + Tozasertib; first compound 0.02 µM): 0.875
relative viability (Pemetrexed + Tozasertib; first compound 0.06325 µM): 0.775
relative viability (Pemetrexed + Tozasertib; first compound 0.2 µM): 0.643
relative viability (Pemetrexed + Olaparib; first compound 0.002 µM): 0.861
relative viability (Pemetrexed + Olaparib; first compound 0.006325 µM): 0.965
relative viability (Pemetrexed + Olaparib; first compound 0.02 µM): 0.886
relative viability (Pemetrexed + Olaparib; first compound 0.06325 µM): 0.889
relative viability (Pemetrexed + Olaparib; first compound 0.2 µM): 0.777
relative viability (Idelalisib + Foretinib; first compound 0.04 µM): 1.21
relative viability (Idelalisib + Foretinib; first compound 0.1265 µM): 1.26
relative viability (Idelalisib + Foretinib; first compound 0.4 µM): 1.06
relative viability (Idelalisib + Foretinib; first compound 1.265 µM): 1.33
relative viability (Idelalisib + Foretinib; first compound 4 µM): 1.09
relative viability (Pemetrexed + Trametinib; first compound 0.002 µM): 0.55
relative viability (Pemetrexed + Trametinib; first compound 0.006325 µM): 0.522
relative viability (Pemetrexed + Trametinib; first compound 0.02 µM): 0.591
relative viability (Pemetrexed + Trametinib; first compound 0.06325 µM): 0.567
relative viability (Pemetrexed + Trametinib; first compound 0.2 µM): 0.533

LU99A
relative viability (Pemetrexed + Tozasertib; first compound 0.002 µM): 0.259
relative viability (Pemetrexed + Tozasertib; first compound 0.006325 µM): 0.325
relative viability (Pemetrexed + Tozasertib; first compound 0.02 µM): 0.338
relative viability (Pemetrexed + Tozasertib; first compound 0.06325 µM): 0.272
relative viability (Pemetrexed + Tozasertib; first compound 0.2 µM): 0.249
relative viability (Pemetrexed + Olaparib; first compound 0.002 µM): 0.246
relative viability (Pemetrexed + Olaparib; first compound 0.006325 µM): 0.245
relative viability (Pemetrexed + Olaparib; first compound 0.02 µM): 0.302
relative viability (Pemetrexed + Olaparib; first compound 0.06325 µM): 0.28
relative viability (Pemetrexed + Olaparib; first compound 0.2 µM): 0.244
relative viability (Idelalisib + Foretinib; first compound 0.04 µM): 0.939
relative viability (Idelalisib + Foretinib; first compound 0.1265 µM): 0.847
relative viability (Idelalisib + Foretinib; first compound 0.4 µM): 0.775
relative viability (Idelalisib + Foretinib; first compound 1.265 µM): 0.79
relative viability (Idelalisib + Foretinib; first compound 4 µM): 0.775
relative viability (Pemetrexed + Trametinib; first compound 0.002 µM): 0.496
relative viability (Pemetrexed + Trametinib; first compound 0.006325 µM): 0.451
relative viability (Pemetrexed + Trametinib; first compound 0.02 µM): 0.572
relative viability (Pemetrexed + Trametinib; first compound 0.06325 µM): 0.467
relative viability (Pemetrexed + Trametinib; first compound 0.2 µM): 0.538

NCI-H23
relative viability (Pemetrexed + Tozasertib; first compound 0.002 µM): 0.311
relative viability (Pemetrexed + Tozasertib; first compound 0.006325 µM): 0.36
relative viability (Pemetrexed + Tozasertib; first compound 0.02 µM): 0.514
relative viability (Pemetrexed + Tozasertib; first compound 0.06325 µM): 0.347
relative viability (Pemetrexed + Tozasertib; first compound 0.2 µM): 0.395
relative viability (Pemetrexed + Olaparib; first compound 0.002 µM): 0.318
relative viability (Pemetrexed + Olaparib; first compound 0.006325 µM): 0.335
relative viability (Pemetrexed + Olaparib; first compound 0.02 µM): 0.331
relative viability (Pemetrexed + Olaparib; first compound 0.06325 µM): 0.32
relative viability (Pemetrexed + Olaparib; first compound 0.2 µM): 0.319
relative viability (Idelalisib + Foretinib; first compound 0.04 µM): 1.2
relative viability (Idelalisib + Foretinib; first compound 0.1265 µM): 1.1
relative viability (Idelalisib + Foretinib; first compound 0.4 µM): 0.766
relative viability (Idelalisib + Foretinib; first compound 4 µM): 0.859
relative viability (Pemetrexed + Trametinib; first compound 0.002 µM): 0.426
relative viability (Pemetrexed + Trametinib; first compound 0.006325 µM): 0.294
relative viability (Pemetrexed + Trametinib; first compound 0.02 µM): 0.408
relative viability (Pemetrexed + Trametinib; first compound 0.06325 µM): 0.375
relative viability (Pemetrexed + Trametinib; first compound 0.2 µM): 0.381

PC-14
relative viability (Pemetrexed + Tozasertib; first compound 0.002 µM): 0.661
relative viability (Pemetrexed + Tozasertib; first compound 0.006325 µM): 0.564
relative viability (Pemetrexed + Tozasertib; first compound 0.02 µM): 0.676
relative viability (Pemetrexed + Tozasertib; first compound 0.06325 µM): 0.416
relative viability (Pemetrexed + Tozasertib; first compound 0.2 µM): 0.222
relative viability (Pemetrexed + Olaparib; first compound 0.002 µM): 0.272
relative viability (Pemetrexed + Olaparib; first compound 0.006325 µM): 0.151
relative viability (Pemetrexed + Olaparib; first compound 0.02 µM): 0.274
relative viability (Pemetrexed + Olaparib; first compound 0.06325 µM): 0.127
relative viability (Pemetrexed + Olaparib; first compound 0.2 µM): 0.0867
relative viability (Idelalisib + Foretinib; first compound 0.04 µM): 1.05
relative viability (Idelalisib + Foretinib; first compound 0.1265 µM): 0.988
relative viability (Idelalisib + Foretinib; first compound 0.4 µM): 0.933
relative viability (Idelalisib + Foretinib; first compound 1.265 µM): 0.995
relative viability (Idelalisib + Foretinib; first compound 4 µM): 0.968
relative viability (Pemetrexed + Trametinib; first compound 0.002 µM): 0.681
relative viability (Pemetrexed + Trametinib; first compound 0.006325 µM): 0.651
relative viability (Pemetrexed + Trametinib; first compound 0.02 µM): 0.805
relative viability (Pemetrexed + Trametinib; first compound 0.06325 µM): 0.198
relative viability (Pemetrexed + Trametinib; first compound 0.2 µM): 0.123

A-427
relative viability (Pemetrexed + Tozasertib; first compound 0.002 µM): 0.232
relative viability (Pemetrexed + Tozasertib; first compound 0.006325 µM): 0.2
relative viability (Pemetrexed + Tozasertib; first compound 0.02 µM): 0.213
relative viability (Pemetrexed + Tozasertib; first compound 0.06325 µM): 0.509
relative viability (Pemetrexed + Tozasertib; first compound 0.2 µM): 0.218
relative viability (Pemetrexed + Olaparib; first compound 0.002 µM): 0.758
relative viability (Pemetrexed + Olaparib; first compound 0.006325 µM): 0.765
relative viability (Pemetrexed + Olaparib; first compound 0.02 µM): 0.775
relative viability (Pemetrexed + Olaparib; first compound 0.06325 µM): 0.759
relative viability (Pemetrexed + Olaparib; first compound 0.2 µM): 0.711
relative viability (Idelalisib + Foretinib; first compound 0.04 µM): 1.27
relative viability (Idelalisib + Foretinib; first compound 0.1265 µM): 0.946
relative viability (Idelalisib + Foretinib; first compound 0.4 µM): 0.962
relative viability (Idelalisib + Foretinib; first compound 1.265 µM): 1.04
relative viability (Idelalisib + Foretinib; first compound 4 µM): 1.06
relative viability (Pemetrexed + Trametinib; first compound 0.002 µM): 0.785
relative viability (Pemetrexed + Trametinib; first compound 0.006325 µM): 0.794
relative viability (Pemetrexed + Trametinib; first compound 0.02 µM): 0.794
relative viability (Pemetrexed + Trametinib; first compound 0.06325 µM): 0.696
relative viability (Pemetrexed + Trametinib; first compound 0.2 µM): 0.733

NCI-H596
relative viability (Pemetrexed + Tozasertib; first compound 0.002 µM): 0.873
relative viability (Pemetrexed + Tozasertib; first compound 0.006325 µM): 0.858
relative viability (Pemetrexed + Tozasertib; first compound 0.02 µM): 0.887
relative viability (Pemetrexed + Tozasertib; first compound 0.06325 µM): 0.754
relative viability (Pemetrexed + Tozasertib; first compound 0.2 µM): 0.491
relative viability (Pemetrexed + Olaparib; first compound 0.002 µM): 0.747
relative viability (Pemetrexed + Olaparib; first compound 0.006325 µM): 0.73
relative viability (Pemetrexed + Olaparib; first compound 0.02 µM): 0.761
relative viability (Pemetrexed + Olaparib; first compound 0.06325 µM): 0.668
relative viability (Pemetrexed + Olaparib; first compound 0.2 µM): 0.514
relative viability (Idelalisib + Foretinib; first compound 0.04 µM): 0.95
relative viability (Idelalisib + Foretinib; first compound 0.1265 µM): 0.885
relative viability (Idelalisib + Foretinib; first compound 0.4 µM): 0.671
relative viability (Idelalisib + Foretinib; first compound 1.265 µM): 0.909
relative viability (Idelalisib + Foretinib; first compound 4 µM): 0.681
relative viability (Pemetrexed + Trametinib; first compound 0.002 µM): 0.886
relative viability (Pemetrexed + Trametinib; first compound 0.006325 µM): 0.869
relative viability (Pemetrexed + Trametinib; first compound 0.02 µM): 0.663
relative viability (Pemetrexed + Trametinib; first compound 0.06325 µM): 0.643
relative viability (Pemetrexed + Trametinib; first compound 0.2 µM): 0.5
